ChEMBL document CHEMBL5223091, “Targeting the Mitotic Kinesin KIF18A in Chromosomally Unstable Cancers: Hit Optimization Toward an In Vivo Chemical Probe” (J Med Chem, 2022)

Assays:
OVCAR-3 [1] = experiment: Antimitotic activity in human OVCAR-3 cells xenografted in CD-1 mouse assessed as fold increase in mitotic cells in tumor at 100 mg/kg, po measured after 24 hrs relative to control; assay type: functional
OVCAR-3 [2] = experiment: Antiproliferative activity against human OVCAR-3 cells by nuclear count assay; assay type: functional, cell-based
[3] = biological target: T1, Kinesin-like protein KIF18A (Homo sapiens, UniProt Q8NI77); experiment: Inhibition of recombinant His-tagged human KIF18A (1 to 467 residues) expressed in Trichoplusia ni insect cells assessed as inhibition of microtubule-stimulated ATPase activity preincubated for 30 mins followed by ATP addition and further incubated for 15 mins by ADP-Glo reagent based assay; parameters: species or system Insect cell
T1 sequence (Q8NI77 whole entry): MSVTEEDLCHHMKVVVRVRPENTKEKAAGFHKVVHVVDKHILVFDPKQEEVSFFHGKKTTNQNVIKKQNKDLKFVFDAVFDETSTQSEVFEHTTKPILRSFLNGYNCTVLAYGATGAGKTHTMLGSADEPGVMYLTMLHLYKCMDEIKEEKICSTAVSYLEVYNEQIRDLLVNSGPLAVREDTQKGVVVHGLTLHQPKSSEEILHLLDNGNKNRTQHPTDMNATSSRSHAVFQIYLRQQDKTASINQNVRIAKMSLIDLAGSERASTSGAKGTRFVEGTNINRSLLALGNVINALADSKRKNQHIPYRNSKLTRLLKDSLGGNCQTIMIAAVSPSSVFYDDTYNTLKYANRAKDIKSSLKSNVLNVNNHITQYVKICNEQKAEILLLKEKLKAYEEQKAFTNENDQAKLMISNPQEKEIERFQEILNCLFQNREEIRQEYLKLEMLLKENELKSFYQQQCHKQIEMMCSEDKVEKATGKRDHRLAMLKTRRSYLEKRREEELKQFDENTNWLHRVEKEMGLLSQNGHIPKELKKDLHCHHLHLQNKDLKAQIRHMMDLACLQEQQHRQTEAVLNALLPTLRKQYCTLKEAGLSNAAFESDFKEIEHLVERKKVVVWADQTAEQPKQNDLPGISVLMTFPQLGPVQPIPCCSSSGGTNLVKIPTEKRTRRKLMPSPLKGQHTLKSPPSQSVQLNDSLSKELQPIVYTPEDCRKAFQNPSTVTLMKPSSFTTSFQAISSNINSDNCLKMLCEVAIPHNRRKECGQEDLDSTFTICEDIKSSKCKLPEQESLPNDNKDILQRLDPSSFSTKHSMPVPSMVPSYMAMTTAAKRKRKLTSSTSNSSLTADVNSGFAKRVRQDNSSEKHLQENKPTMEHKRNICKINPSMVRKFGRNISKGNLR

OVCAR-3 [4] = experiment: Induction of mitotic arrest in human OVCAR-3 cells assessed as p-histone H3 incubated for 24 hrs by mitotic - imaging assay; assay type: functional, cell-based; conditions: OVCAR-3, 24 h
[5] = Drug metabolism in mouse liver microsomes assessed as di-hydroxylate metabolite formation in presence of NADPH by LC-MS/MS analysis; assay type: ADME, Microsome
[6] = Metabolic stability in human liver microsomes assessed as intrinsic clearance at 0.5 uM incubated upto 40 mins by LCMS analysis; assay type: ADME, Microsome; conditions: read-out: CLH
[7] = Drug metabolism in mouse liver microsomes assessed as mono-hyoxylate metabolite formation in presence of NADPH by LC-MS/MS analysis; assay type: ADME, Microsome
[8] = Metabolic stability in mouse liver microsomes assessed as intrinsic clearance at 0.5 uM incubated upto 40 mins by LCMS analysis; assay type: ADME, Microsome; conditions: read-out: CLH
[9] = Cmax in CD-1 mouse xenografted with human OVCAR-3 cells at 100 mg/kg, ip by LC-MS/MS analysis; assay type: ADME, organism-based; parameters: dose 100 mg/kg, route ip; conditions: in vivo
[10] = Unbound fraction in CD-1 mouse plasma xenografted with human OVCAR-3 cells at 100 mg/kg, ip by LC-MS/MS analysis; assay type: ADME, organism-based
[11] = Plasma concentration in CD-1 mouse xenografted with human OVCAR-3 cells at 100 mg/kg, ip measured upto 24 hrs by LC-MS/MS analysis; assay type: ADME, organism-based
[12] = AUC (0 to 24 hrs) in CD-1 mouse xenografted with human OVCAR-3 cells at 100 mg/kg, ip by LC-MS/MS analysis; assay type: ADME, organism-based; parameters: dose 100 mg/kg, route ip; conditions: in vivo
Tubulin = experiment: Binding affinity to microtubule (unknown origin) by NMR based assay; assay type: protein-complex assay, Homo sapiens
[13] = Binding affinity to KIF18A- MT complex (unknown origin) by NMR based assay; parameters: species or system Homo sapiens
[14] = biological target: T1, Kinesin-like protein KIF18A; experiment: Inhibition of KIF18A ATPase activity (unknown origin)
[15] = biological target: T1, Kinesin-like protein KIF18A; experiment: Binding affinity to KIF18A (unknown origin) by NMR based assay

## CC[C@@H]1C(=O)N(C)c2cnc(Nc3ccc(C(=O)NC4CCN(C)CC4)cc3OC)nc2N1C1CCCC1 [BI-2536]
OVCAR-3 [1]
  fold change (FC): >3

## O=C(Nc1cccc(S(=O)(=O)C2CCCC2)c1)c1cccnc1N1CCC2(CC1)CC2
OVCAR-3 [2]
  EC50: 1240 nM
[3]
  IC50: 410 nM
OVCAR-3 [4]
  EC50: 1870 nM
[5]
  Drug metabolism: Metabolite_Detected
[6]
  microsomal CLint at 0.5 µM: > 399 µL/min/mg
[7]
  Drug metabolism: Metabolite_Detected
[8]
  microsomal CLint at 0.5 µM: > 399 µL/min/mg

## CC(C)(C)NS(=O)(=O)c1cccc(NC(=O)c2ccc(NS(C)(=O)=O)cc2N2CCC3(CC2)CC3)c1
OVCAR-3 [2]
  EC50: 16 nM
[3]
  IC50: 28 nM
[9]
  Cmax: 12.6 µM
OVCAR-3 [4]
  EC50: 16 nM
[10]
  fraction unbound: 0.007
[11]
  concentration at 24 h: 2.9 µM
[6]
  microsomal CLint at 0.5 µM: 79 µL/min/mg
[8]
  microsomal CLint at 0.5 µM: 81 µL/min/mg
[12]
  AUC(0-t): 147 µM·h

## C[C@H](NS(=O)(=O)c1cccc(NC(=O)c2ccc(NC(CO)CO)nc2N2CCC3(CC2)CC3)c1)C(F)(F)F
Tubulin
  Kd: 25000 nM
[3]
  IC50: 90 nM
[13]
  Kd: 150 nM
[14]
  IC50: 32000 nM
[15]
  Kd: > 50000 nM
